Test results published in article PMC8037182, “Solvothermal Synthesis of Multiple Dihydropyrimidinones at a Time as Inhibitors of Eg5” (Molecules, 2021).

Test system: Hela cell line
Assay: Cytotoxicity MTS assay, Hela cell line
Format: cell-based
Settings: for OD490 value, Mean / OD490 value, Well 1 / OD490 value, Well 2 / OD490 value, Well 3 / OD490 Mean / OD490 Well 1 / OD490 Well 2 / OD490 Well 3: Hela cell line; for OD490 value, Mean / OD490 value, Well 1 / OD490 value, Well 2 / OD490 value, Well 3: MTS; for IC50: MTS assay, 24 h exposure
Protocol: The positive compounds (IC50 < 100 μM) obtained from the primary Eg5 motor protein ATPase assay were tested for antiproliferative activity in vitro against Caco-2 cell line, Hela cell line, L929 cell line and T24 cell line by performing MTS assay. Cells were introduced into 96-well plates at a density of 1000 cells per well. After 24 h incubation, the cells were exposed with compounds at final concentrations ranging from 0.5 to 100 µM for 24 h. DMSO was used at a final concentration of 0.025% as blank control, monastrol was used as the positive control. Then 20 µL (CellTiter 96® AQueous One Solution Promega, Madison, WI, USA) reagent was added in each well. After 2 h at 37 °C in a 80% humidified, 5% CO2 atmosphere, the absorbance at 490 nm was recorded using a microplate reader (BIO-RAD iMark^TM). The results were obtained in three independent duplicate experiments. The primary data were shown in Supplementary Materials Tables S4–S7. The IC50 values for these compounds were calculated from a non-linear regression graph plotted between the percentage of cell viability and concentration with SPSS17.0 software.

## CCOC(=O)c1c(C2NC(=O)NC(C)=C2C(=O)Nc2ccccc2C)[nH]c(C(=O)OC)c1C (stereo not drawn) [D2]
0.5μM, first assay
  OD490 value, Mean: 2.6241
  OD490 value, Well 1: 2.6512
  OD490 value, Well 2: 2.7230
  OD490 value, Well 3: 2.4982
0.5μM, second assay
  OD490 value, Mean: 2.6365
  OD490 value, Well 1: 2.7038
  OD490 value, Well 2: 2.6687
  OD490 value, Well 3: 2.5371
0.5μM, third assay
  OD490 value, Mean: 2.6753
  OD490 value, Well 1: 2.5959
  OD490 value, Well 2: 2.8645
  OD490 value, Well 3: 2.5656
1μM, first assay
  OD490 value, Mean: 2.5821
  OD490 value, Well 1: 2.5465
  OD490 value, Well 2: 2.6265
  OD490 value, Well 3: 2.5734
1μM, second assay
  OD490 value, Mean: 2.6167
  OD490 value, Well 1: 2.6874
  OD490 value, Well 2: 2.5987
  OD490 value, Well 3: 2.5641
1μM, third assay
  OD490 value, Mean: 2.6782
  OD490 value, Well 1: 2.5645
  OD490 value, Well 2: 2.7848
  OD490 value, Well 3: 2.6854
10μM, first assay
  OD490 value, Mean: 2.6025
  OD490 value, Well 1: 2.4718
  OD490 value, Well 2: 2.7280
  OD490 value, Well 3: 2.6077
10μM, second assay
  OD490 value, Mean: 2.7525
  OD490 value, Well 1: 2.8301
  OD490 value, Well 2: 2.6874
  OD490 value, Well 3: 2.7401
10μM, third assay
  OD490 value, Mean: 2.6780
  OD490 value, Well 1: 2.5659
  OD490 value, Well 2: 2.6898
  OD490 value, Well 3: 2.7784
25μM, first assay
  OD490 value, Mean: 2.6414
  OD490 value, Well 1: 2.4669
  OD490 value, Well 2: 2.6653
  OD490 value, Well 3: 2.7919
25μM, second assay
  OD490 value, Mean: 2.6474
  OD490 value, Well 1: 2.8835
  OD490 value, Well 2: 2.4699
  OD490 value, Well 3: 2.5888
25μM, third assay
  OD490 value, Mean: 2.6061
  OD490 value, Well 1: 2.5656
  OD490 value, Well 2: 2.6632
  OD490 value, Well 3: 2.5894
50μM, first assay
  OD490 value, Mean: 2.6499
  OD490 value, Well 1: 2.7237
  OD490 value, Well 2: 2.5642
  OD490 value, Well 3: 2.6617
50μM, second assay
  OD490 value, Mean: 2.5211
  OD490 value, Well 1: 2.6654
  OD490 value, Well 2: 2.5656
  OD490 value, Well 3: 2.3324
50μM, third assay
  OD490 value, Mean: 2.6330
  OD490 value, Well 1: 2.6547
  OD490 value, Well 2: 2.5655
  OD490 value, Well 3: 2.6788
100μM, first assay
  OD490 value, Mean: 1.9886
  OD490 value, Well 1: 2.0164
  OD490 value, Well 2: 1.9699
  OD490 value, Well 3: 1.9794
100μM, second assay
  OD490 value, Mean: 2.0267
  OD490 value, Well 1: 1.8863
  OD490 value, Well 2: 1.9925
  OD490 value, Well 3: 2.2014
100μM, third assay
  OD490 value, Mean: 2.0032
  OD490 value, Well 1: 1.9987
  OD490 value, Well 2: 2.0123
  OD490 value, Well 3: 1.9986
  IC50: > 150 µM

## COC(=O)c1[nH]c(C2NC(=S)NC(C)=C2C(=O)c2ccccc2)c(C(=O)OC)c1C (stereo not drawn) [D14]
0.5μM, first assay
  OD490 Mean: 2.3692
  OD490 Well 1: 2.2024
  OD490 Well 2: 2.5165
  OD490 Well 3: 2.3887
0.5μM, second assay
  OD490 Mean: 2.4577
  OD490 Well 1: 2.5398
  OD490 Well 2: 2.4478
  OD490 Well 3: 2.3854
0.5μM, third assay
  OD490 Mean: 2.5210
  OD490 Well 1: 2.5365
  OD490 Well 2: 2.6899
  OD490 Well 3: 2.3365
1μM, first assay
  OD490 Mean: 2.4838
  OD490 Well 1: 2.3561
  OD490 Well 2: 2.5456
  OD490 Well 3: 2.5498
1μM, second assay
  OD490 Mean: 2.4907
  OD490 Well 1: 2.5353
  OD490 Well 2: 2.4889
  OD490 Well 3: 2.4478
1μM, third assay
  OD490 Mean: 2.5269
  OD490 Well 1: 2.4563
  OD490 Well 2: 2.5587
  OD490 Well 3: 2.5656
10μM, first assay
  OD490 Mean: 2.5226
  OD490 Well 1: 2.5006
  OD490 Well 2: 2.6290
  OD490 Well 3: 2.4381
10μM, second assay
  OD490 Mean: 2.5413
  OD490 Well 1: 2.4987
  OD490 Well 2: 2.5687
  OD490 Well 3: 2.5565
10μM, third assay
  OD490 Mean: 2.5164
  OD490 Well 1: 2.5321
  OD490 Well 2: 2.4598
  OD490 Well 3: 2.5574
25μM, first assay
  OD490 Mean: 2.4708
  OD490 Well 1: 2.2633
  OD490 Well 2: 2.6154
  OD490 Well 3: 2.5338
25μM, second assay
  OD490 Mean: 2.5615
  OD490 Well 1: 2.5835
  OD490 Well 2: 2.5478
  OD490 Well 3: 2.5532
25μM, third assay
  OD490 Mean: 2.4824
  OD490 Well 1: 2.3365
  OD490 Well 2: 2.4587
  OD490 Well 3: 2.6521
50μM, first assay
  OD490 Mean: 2.7660
  OD490 Well 1: 2.6176
  OD490 Well 2: 2.8052
  OD490 Well 3: 2.8752
50μM, second assay
  OD490 Mean: 2.6584
  OD490 Well 1: 2.6324
  OD490 Well 2: 2.5687
  OD490 Well 3: 2.7741
50μM, third assay
  OD490 Mean: 2.5680
  OD490 Well 1: 2.5574
  OD490 Well 2: 2.4768
  OD490 Well 3: 2.6698
100μM, first assay
  OD490 Mean: 2.5211
  OD490 Well 1: 2.7163
  OD490 Well 2: 2.4550
  OD490 Well 3: 2.3919
100μM, second assay
  OD490 Mean: 2.5251
  OD490 Well 1: 2.6987
  OD490 Well 2: 2.4465
  OD490 Well 3: 2.4301
100μM, third assay
  OD490 Mean: 2.6068
  OD490 Well 1: 2.6689
  OD490 Well 2: 2.5641
  OD490 Well 3: 2.5874
  IC50: > 150 µM

## CCOC(=O)c1[nH]c(C2NC(=O)NC(C)=C2C(=O)Nc2ccc(Cl)cc2)c(C(=O)OCC)c1C (stereo not drawn) [D7]
0.5μM, first assay
  OD490 value, Mean: 2.5908
  OD490 value, Well 1: 2.5621
  OD490 value, Well 2: 2.6393
  OD490 value, Well 3: 2.5711
0.5μM, second assay
  OD490 value, Mean: 2.6768
  OD490 value, Well 1: 2.5588
  OD490 value, Well 2: 2.6974
  OD490 value, Well 3: 2.7741
0.5μM, third assay
  OD490 value, Mean: 2.6551
  OD490 value, Well 1: 2.6545
  OD490 value, Well 2: 2.6358
  OD490 value, Well 3: 2.6749
1μM, first assay
  OD490 value, Mean: 2.4582
  OD490 value, Well 1: 2.4152
  OD490 value, Well 2: 2.4632
  OD490 value, Well 3: 2.4962
1μM, second assay
  OD490 value, Mean: 2.6058
  OD490 value, Well 1: 2.8624
  OD490 value, Well 2: 2.6541
  OD490 value, Well 3: 2.3010
1μM, third assay
  OD490 value, Mean: 2.6692
  OD490 value, Well 1: 2.6686
  OD490 value, Well 2: 2.5980
  OD490 value, Well 3: 2.7410
10μM, first assay
  OD490 value, Mean: 2.5790
  OD490 value, Well 1: 2.7201
  OD490 value, Well 2: 2.4926
  OD490 value, Well 3: 2.5244
10μM, second assay
  OD490 value, Mean: 2.5914
  OD490 value, Well 1: 2.3698
  OD490 value, Well 2: 2.8523
  OD490 value, Well 3: 2.5521
10μM, third assay
  OD490 value, Mean: 2.6067
  OD490 value, Well 1: 2.5657
  OD490 value, Well 2: 2.6845
  OD490 value, Well 3: 2.5698
25μM, first assay
  OD490 value, Mean: 2.6458
  OD490 value, Well 1: 2.7056
  OD490 value, Well 2: 2.6228
  OD490 value, Well 3: 2.6091
25μM, second assay
  OD490 value, Mean: 2.6325
  OD490 value, Well 1: 2.5901
  OD490 value, Well 2: 2.6301
  OD490 value, Well 3: 2.6774
25μM, third assay
  OD490 value, Mean: 2.6849
  OD490 value, Well 1: 2.6987
  OD490 value, Well 2: 2.6457
  OD490 value, Well 3: 2.7102
50μM, first assay
  OD490 value, Mean: 2.4563
  OD490 value, Well 1: 2.5239
  OD490 value, Well 2: 2.4847
  OD490 value, Well 3: 2.3602
50μM, second assay
  OD490 value, Mean: 2.2166
  OD490 value, Well 1: 2.3365
  OD490 value, Well 2: 2.0124
  OD490 value, Well 3: 2.3010
50μM, third assay
  OD490 value, Mean: 2.4441
  OD490 value, Well 1: 2.4565
  OD490 value, Well 2: 2.6544
  OD490 value, Well 3: 2.2214
100μM, first assay
  OD490 value, Mean: 1.9660
  OD490 value, Well 1: 1.8876
  OD490 value, Well 2: 1.9083
  OD490 value, Well 3: 2.1021
100μM, second assay
  OD490 value, Mean: 1.8447
  OD490 value, Well 1: 1.6754
  OD490 value, Well 2: 1.8601
  OD490 value, Well 3: 1.9987
100μM, third assay
  OD490 value, Mean: 1.9092
  OD490 value, Well 1: 1.9698
  OD490 value, Well 2: 1.9033
  OD490 value, Well 3: 1.8546
  IC50: > 150 µM
